Laboratory results: patent US11033641B2, “Radiolabelled mGluR2/3 pet ligands” (Janssen Pharmaceutica NV, priority 2015, dated 2021)

Assay: Ex-vivo biodistribution in SD rats
Parameters: species or system Sprague Dawley rats
Description: Sprague-Dawley rats obtained from Harlan (the Netherlands), were housed in groups of four to six per cage until treatment. They were kept at a constant temperature of 21° C. and at a 12-h light/dark cycle, in which lights were switched on at 8:00 a.m. Animals had unrestricted access to food (Teklad Global 16% Protein Rodent Diet, Harlan, Madison, Wis., USA) and water. All animal experiments were performed in compliance with Belgium laws on animal experimentation and after approval by the local animal ethics committee.
(§1) The biodistribution of [^18F]-1 was determined at 2, 10, 30 and 60 min, after injection in Sprague Dawley (SD) rats (n=3 per time point) while for [^18F]-2 the 30 min time point was not performed. Rats were injected intravenously with 0.7-1.1 MBq via a tail vein and euthanized at the time points indicated above, under isoflurane anesthesia. All tissues were dissected, weighed and counted for radioactivity in a gamma counter.
as §1, with “Dawley” for “Dawley (SD)”, “point).” for “point) while for [^18F]-2 the 30 min time point was not performed.”

- Biodistribution, mean SUV (blood, 2 min after i.v. injection): 1.12 SUV
- Biodistribution, mean SUV (blood, 10 min after i.v. injection): 0.74 SUV
- Biodistribution, mean SUV (blood, 30 min after i.v. injection): 0.47 SUV
- Biodistribution, mean SUV (blood, 60 min after i.v. injection): 0.50 SUV
- Biodistribution, mean SUV (bone, 2 min after i.v. injection): 0.39 SUV
- Biodistribution, mean SUV (bone, 10 min after i.v. injection): 0.34 SUV
- Biodistribution, mean SUV (bone, 30 min after i.v. injection): 0.48 SUV
- Biodistribution, mean SUV (bone, 60 min after i.v. injection): 0.58 SUV
- Biodistribution, mean SUV (cerebellum, 2 min after i.v. injection): 2.25 SUV
- Biodistribution, mean SUV (cerebellum, 10 min after i.v. injection): 3.17 SUV
- Biodistribution, mean SUV (cerebellum, 30 min after i.v. injection): 3.93 SUV
- Biodistribution, mean SUV (cerebellum, 60 min after i.v. injection): 4.41 SUV
- Biodistribution, mean SUV (cerebrum + cerebellum, 2 min after i.v. injection): 2.03 SUV
- Biodistribution, mean SUV (cerebrum + cerebellum, 10 min after i.v. injection): 3.11 SUV
- Biodistribution, mean SUV (cerebrum + cerebellum, 30 min after i.v. injection): 3.98 SUV
- Biodistribution, mean SUV (cerebrum + cerebellum, 60 min after i.v. injection): 4.95 SUV
- Biodistribution, mean SUV (cortex, 2 min after i.v. injection): 3.50 SUV
- Biodistribution, mean SUV (cortex, 10 min after i.v. injection): 8.37 SUV
- Biodistribution, mean SUV (cortex, 30 min after i.v. injection): 6.96 SUV
- Biodistribution, mean SUV (cortex, 60 min after i.v. injection): 8.11 SUV
- Brain uptake, in words (ex-vivo biodistribution): very high
- Defluorination judged from bone uptake over time (ex-vivo biodistribution): some defluorination
- Peripheral uptake, in words (ex-vivo biodistribution): highest uptake in the liver
- Biodistribution, mean SUV (heart, 2 min after i.v. injection): 3.54 SUV
- Biodistribution, mean SUV (heart, 10 min after i.v. injection): 2.11 SUV
- Biodistribution, mean SUV (heart, 30 min after i.v. injection): 1.41 SUV
- Biodistribution, mean SUV (heart, 60 min after i.v. injection): 1.30 SUV
- Biodistribution, mean SUV (hippocampus, 2 min after i.v. injection): 1.53 SUV
- Biodistribution, mean SUV (hippocampus, 10 min after i.v. injection): 2.49 SUV
- Biodistribution, mean SUV (hippocampus, 30 min after i.v. injection): 3.10 SUV
- Biodistribution, mean SUV (hippocampus, 60 min after i.v. injection): 3.90 SUV
- Biodistribution, mean SUV (kidneys, 2 min after i.v. injection): 4.97 SUV
- Biodistribution, mean SUV (kidneys, 10 min after i.v. injection): 2.58 SUV
- Biodistribution, mean SUV (kidneys, 30 min after i.v. injection): 2.08 SUV
- Biodistribution, mean SUV (kidneys, 60 min after i.v. injection): 2.16 SUV
- Biodistribution, mean SUV (liver, 2 min after i.v. injection): 9.74 SUV
- Biodistribution, mean SUV (liver, 10 min after i.v. injection): 6.38 SUV
- Biodistribution, mean SUV (liver, 30 min after i.v. injection): 4.66 SUV
- Biodistribution, mean SUV (liver, 60 min after i.v. injection): 4.75 SUV
- Biodistribution, mean SUV (lungs, 2 min after i.v. injection): 2.93 SUV
- Biodistribution, mean SUV (lungs, 10 min after i.v. injection): 1.78 SUV
- Biodistribution, mean SUV (lungs, 30 min after i.v. injection): 1.63 SUV
- Biodistribution, mean SUV (lungs, 60 min after i.v. injection): 1.92 SUV
- Biodistribution, mean SUV (muscle, 2 min after i.v. injection): 0.50 SUV
- Biodistribution, mean SUV (muscle, 10 min after i.v. injection): 0.83 SUV
- Biodistribution, mean SUV (muscle, 30 min after i.v. injection): 0.75 SUV
- Biodistribution, mean SUV (muscle, 60 min after i.v. injection): 0.79 SUV
- Biodistribution, mean SUV (pancreas, 2 min after i.v. injection): 4.30 SUV
- Biodistribution, mean SUV (pancreas, 10 min after i.v. injection): 2.36 SUV
- Biodistribution, mean SUV (pancreas, 30 min after i.v. injection): 2.06 SUV
- Biodistribution, mean SUV (pancreas, 60 min after i.v. injection): 2.33 SUV
- Biodistribution, mean SUV (pons, 2 min after i.v. injection): 1.53 SUV
- Biodistribution, mean SUV (pons, 10 min after i.v. injection): 1.73 SUV
- Biodistribution, mean SUV (pons, 30 min after i.v. injection): 1.76 SUV
- Biodistribution, mean SUV (pons, 60 min after i.v. injection): 1.85 SUV
- Biodistribution, mean SUV (rest of cerebrum, 2 min after i.v. injection): 2.06 SUV
- Biodistribution, mean SUV (rest of cerebrum, 10 min after i.v. injection): 3.34 SUV
- Biodistribution, mean SUV (rest of cerebrum, 30 min after i.v. injection): 4.37 SUV
- Biodistribution, mean SUV (rest of cerebrum, 60 min after i.v. injection): 5.52 SUV
- Biodistribution, mean SUV (spleen, 2 min after i.v. injection): 2.81 SUV
- Biodistribution, mean SUV (spleen, 10 min after i.v. injection): 1.68 SUV
- Biodistribution, mean SUV (spleen, 30 min after i.v. injection): 1.06 SUV
- Biodistribution, mean SUV (spleen, 60 min after i.v. injection): 1.02 SUV
- Biodistribution, mean SUV (striatum, 2 min after i.v. injection): 1.98 SUV
- Biodistribution, mean SUV (striatum, 10 min after i.v. injection): 3.46 SUV
- Biodistribution, mean SUV (striatum, 30 min after i.v. injection): 4.15 SUV
- Biodistribution, mean SUV (striatum, 60 min after i.v. injection): 7.12 SUV
- Biodistribution, mean SUV (whole cerebrum, 2 min after i.v. injection): 1.96 SUV
- Biodistribution, mean SUV (whole cerebrum, 10 min after i.v. injection): 3.05 SUV
- Biodistribution, mean SUV (whole cerebrum, 30 min after i.v. injection): 3.94 SUV
- Biodistribution, mean SUV (whole cerebrum, 60 min after i.v. injection): 5.00 SUV
SMILES: C[C@H]1CN(c2ccc(C(F)(F)F)cc2)C(=O)c2c(C#Cc3cnc(N)cc3C[18F])cnn21 [Compound 1]
